What was measured:
Test in all cases: relative viability (nuclei count vs DMSO), 5 days (fraction); higher = more cells survive
[1] = compound: O=C(C[C@H]1NCCC[C@@H]1O)Cn1cnc2cc(Br)c(Cl)cc2c1=O (racemic) [Halofuginone] + CCNC(=O)c1noc(-c2cc(C(C)C)c(O)cc2O)c1-c1ccc(CN2CCOCC2)cc1 [Luminespib] (partner 0.01 µM)
How it was run: (§1)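 Lung cancer cell lines were seeded in 1536-well plates and dosed by pin tool the next day, with either a single drug or a fixed anchor-drug dose combined with five library-drug doses (not always all listed) spaced in √10 steps. Five days later, one step fixed the cells and stained their nuclei (final 0.05% Triton X-100, 1% formaldehyde, 1 ug/ml Hoechst), and nuclei were counted on 4× images. Relative viability is the nuclei count in treated wells divided by the count in vehicle wells, and each value is the median of duplicate plates.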

[2] = compound: O=C(C[C@H]1NCCC[C@@H]1O)Cn1cnc2cc(Br)c(Cl)cc2c1=O (racemic) [Halofuginone] + Cc1nc(Nc2ncc(C(=O)Nc3c(C)cccc3Cl)s2)cc(N2CCN(CCO)CC2)n1 [Dasatinib] (partner 0.075 µM)
How it was run: as §1

[3] = compound: Nc1ncn([C@H]2C[C@H](O)[C@@H](CO)O2)c(=O)n1 [Decitabine] + NC(=O)Nc1cc(-c2cccc(F)c2)sc1C(=O)N[C@H]1CCCNC1 [AZD7762] (partner 0.2 µM)
How it was run: as §1

[4] = compound: O=C(C[C@H]1NCCC[C@@H]1O)Cn1cnc2cc(Br)c(Cl)cc2c1=O (racemic) [Halofuginone] + C[C@@H](Oc1cc(-c2cnn(C3CCNCC3)c2)cnc1N)c1c(Cl)ccc(F)c1Cl [Crizotinib] (partner 1 µM)
How it was run: as §1

Cell Line | relative viability ([1]; first compound 0.001 µM) | relative viability ([1]; first compound 0.003162 µM) | relative viability ([1]; first compound 0.01 µM) | relative viability ([1]; first compound 0.03162 µM) | relative viability ([1]; first compound 0.1 µM) | relative viability ([2]; first compound 0.001 µM) | relative viability ([2]; first compound 0.003162 µM) | relative viability ([2]; first compound 0.01 µM) | relative viability ([2]; first compound 0.03162 µM) | relative viability ([2]; first compound 0.1 µM) | relative viability ([3]; first compound 0.04 µM) | relative viability ([3]; first compound 0.1265 µM) | relative viability ([3]; first compound 0.4 µM) | relative viability ([3]; first compound 1.265 µM) | relative viability ([3]; first compound 4 µM) | relative viability ([4]; first compound 0.001 µM) | relative viability ([4]; first compound 0.003162 µM) | relative viability ([4]; first compound 0.01 µM) | relative viability ([4]; first compound 0.03162 µM) | relative viability ([4]; first compound 0.1 µM)
NCI-H1623 | 0.622 | 0.465 | 0.461 | 0.622 | 0.485 | 0.588 | 0.43 | 0.523 | 0.468 | 0.394 |  |  |  |  |  |  |  |  |  | 
HCC-827 | 0.453 | 0.473 | 0.478 | 0.705 | 0.504 | 0.249 | 0.415 | 0.31 | 0.493 | 0.359 | 0.113 | 0.169 | 0.188 | 0.173 | 0.193 | 0.913 | 0.893 | 0.895 | 0.973 | 0.798
NCI-H322M | 0.944 | 0.855 | 0.915 | 0.719 | 0.318 | 0.27 | 0.26 | 0.251 | 0.208 | 0.212 | 0.546 | 0.619 | 0.478 | 0.445 | 0.501 | 0.982 | 0.911 | 0.906 | 1.01 | 0.77
ChaGo-K-1 | 0.683 | 0.712 | 0.713 | 0.563 | 0.563 | 0.502 | 0.602 | 0.607 | 0.622 | 0.6 | 0.725 | 0.679 | 0.469 | 0.442 | 0.408 | 1.18 | 1.2 | 1.03 | 1.11 | 0.975
BEN | 0.203 | 0.348 | 0.45 | 0.322 | 0.14 | 0.345 | 0.318 | 0.331 | 0.36 | 0.229 | 0.691 | 0.791 | 0.55 | 0.586 | 0.664 | 0.979 | 0.784 | 1.07 | 0.772 | 0.479
NCI-H2347 | 0.513 | 0.321 | 0.483 | 0.511 | 0.598 | 0.299 | 0.308 | 0.334 | 0.281 | 0.194 | 0.734 | 0.67 | 0.69 | 0.398 | 0.433 | 0.677 | 0.72 | 0.81 | 0.736 | 0.551
LOU-NH91 | 0.332 | 0.361 | 0.354 | 0.346 | 0.339 | 0.632 | 0.578 | 0.555 | 0.582 | 0.498 | 0.735 | 0.847 | 0.732 | 0.72 | 0.73 | 0.782 | 0.718 | 0.714 | 0.964 | 0.688
NCI-H2228 | 0.136 | 0.139 | 0.12 | 0.118 | 0.126 | 0.622 | 0.488 | 0.48 | 0.236 | 0.0746 |  |  |  |  |  | 0.45 | 0.658 | 0.411 | 0.218 | 0.177
NCI-H2342 | 0.817 | 0.719 | 0.699 | 0.731 | 0.64 | 0.302 | 0.326 | 0.309 | 0.326 | 0.378 | 0.507 | 0.593 | 0.517 | 0.457 | 0.319 |  |  |  |  | 
HCC-366 |  |  |  |  |  | 0.709 | 0.804 | 0.684 | 0.66 | 0.414 | 0.208 | 0.276 | 0.114 | 0.0535 | 0.0424 | 0.759 | 0.515 | 0.607 | 0.544 | 0.0412
NCI-H2405 | 0.797 | 0.691 | 0.72 | 0.688 | 0.663 | 0.21 | 0.246 | 0.241 | 0.209 | 0.223 | 0.814 | 0.902 | 0.977 | 0.501 | 0.431 | 0.907 | 0.935 | 0.822 | 0.831 | 0.74
Calu-6 |  |  |  |  |  |  |  |  |  |  |  |  |  |  |  | 0.882 | 0.814 | 0.82 | 0.407 | 0.151
201T | 1.06 | 1.04 | 1.03 | 1.08 | 0.866 | 0.595 | 0.586 | 0.572 | 0.543 | 0.306 | 0.463 | 0.514 | 0.38 |  | 0.353 | 0.966 | 1.02 | 1.04 | 1.05 | 0.964
CAL-12T | 0.73 | 0.548 | 0.489 | 0.423 | 0.14 | 0.685 | 0.396 | 0.377 | 0.282 | 0.154 | 0.638 | 0.578 | 0.48 | 0.443 | 0.453 | 0.733 | 0.835 | 0.527 | 0.834 | 0.237
HCC-44 | 1.09 | 1.15 | 1 | 1 | 0.155 |  |  |  |  |  | 1.08 | 0.974 | 0.932 | 1.06 | 1.06 | 0.89 | 0.833 | 0.72 | 0.745 | 0.516
SW 900 | 0.205 | 0.187 | 0.144 | 0.181 | 0.154 | 1 | 0.677 | 0.555 | 0.616 | 0.163 | 0.502 | 0.646 | 0.39 | 0.237 | 0.298 |  |  |  |  | 

— the supplement of paper PMC10307832
